Reference: patent publication US6645976B1 (Eli Lilly and Company, priority 1994, dated 2003)
Counter-ions that a name gives are not always drawn.

Row | SMILES | melting point
1 | CCc1c(CC(N)=O)c2c(OCC(=O)OC)cccn2c1Cc1ccccc1 [Compound 21v, Methyl (3-Benzyl-1-carbamoylmethyl-2-ethylindolizin-8-yloxy)acetate] | 159 to 163 °C
2 | COC(=O)CNc1cccn2c(Cc3ccccc3)c(C)c(C(=O)C(N)=O)c12 [Compound 89a, 2-(3-Benzyl-8-methoxycarbonylmethylamino-2-methyl-indolizin-1-yl)-glyoxylamide] | 293 °C (dec.)
3 | CCc1c(CC(N)=O)c2cc(OCCCC(=O)O)ccn2c1Cc1ccccc1-c1ccccc1 [Compound 71b, 2-(7-(3-Carboxypropyloxy)-2-ethyl-3-(o-phenylbenzyl)indolizin-1-yl)acetamide] | 105 to 120 °C (dec.)
4 | CCc1c(C(=O)C(N)=O)c2c(OCC(=O)OC)cccn2c1Cc1ccccc1[N+](=O)[O-] [Compound 51n, 2-(2-Ethyl-8-(carbomethoxymethyloxy)-3-(o-nitrobenzyl)indolizine-1-yl)glyoxylamide] | 156 to 157 °C
5 | CCOC(=O)COc1ccn2c(Cc3ccccc3-c3ccccc3)c(CC)c(C(=O)C(N)=O)c2c1 [Compound 68b, 2-(7-(Carboethoxymethyloxy)-2-ethyl-3-(o-phenylbenzyl)indolizin-1-yl)glyoxylamide] | 119 to 121 °C
6 | CCCCCC1CCC(Cc2c(CC)c(C(=O)C(N)=O)c3c(OCC(=O)O)cccn23)CC1 (stereo not shown) (as salt: Na) [Compound 52o, 2-(8-(Carboxymethyloxy)-2-ethyl-3-(4-n-pentylcyclohexylmethyl)indolizin-1-yl)glyoxylamide] | 224 to 225 °C
7 | NC(=O)C(=O)c1c(C2CC2)c(Cc2ccccc2-c2ccccc2)n2ccc(OCCCC(=O)O)cc12 [Compound 67b, 2-(7-(3-Carboxypropyloxy)-2-cyclopropyl-3-(o-phenylbenzyl)indolizin-1-yl)glyoxylamide] | 112 to 121 °C (dec.)
8 | CCc1c(C(=O)C(N)=O)c2c(OCC(=O)OC)cccn2c1Cc1cccc(C(F)(F)F)c1 [Compound 39i, (8-(Carbmethoxymethyloxy)-2-ethyl-3-(m-trifluoromethylbenzyl)indolizin-1-yl)glyoxylamide] | 136 to 137 °C
9 | CCc1c(C(=O)C(N)=O)c2c(OCC(=O)OC)cccn2c1-c1cccs1 [Compound 51k] | 182 °C
10 | CCc1c(C(=O)C(N)=O)c2cc(OCCCCCC(=O)O)ccn2c1Cc1ccccc1-c1ccccc1 | 84 to 94 °C (dec.)
11 | COC(=O)COc1cccn2c(Cc3ccccc3)c(C3CC3)c(C(=O)C(N)=O)c12 [Compound 51r, 2-(3-Benzyl-8-carbomethoxymethyloxy-2-cyclopropylindolizin-1-yl)-glyoxylamide] | 186 to 188 °C
12 | COC(=O)COc1cccn2c(CC34CC5CC(CC(C5)C3)C4)c(C)c(C(=O)C(N)=O)c12 [Compound 51p, 2-(3-(Adamant-1-ylmethyl)-8-(carbomethoxymethyloxy)-2-methylindolizin-1-yl)glyoxylamide] | 191 to 192 °C
13 | COC(=O)COc1cccn2c(Cc3ccccc3-c3ccccc3)c(C3CC3)c(C(=O)C(N)=O)c12 [Compound 39k, (8-(Carbmethoxymethyloxy)-2-cyclopropyl-3-(o-phenylbenzyl)indolizin-1-yl)glyoxylamide] | 178 to 179 °C
14 | Cc1c(C(=O)C(N)=O)c2c(NCC(=O)O)cccn2c1CC1CCCCC1 [Compound 90b, 2-(8-Carboxymethylamino-3-cyclohexylmethyl-2-methyl-indolizin-1-yl)-glyoxylamide] | > 300 °C
15 | COC(=O)CNc1cccn2c(CC3CCCCC3)c(C)c(C(=O)C(N)=O)c12 [Compound 89b, 2-(8-methoxycarbonylmethylamino-3-cyclohexylmethyl-2-methyl-indolizin-1-yl)-glyoxylamide] | 173 to 177 °C
16 | CCc1c(CC(N)=O)c2c(OCC(=O)O)cccn2c1-c1cccc2ccccc12 [Compound 22w, 2-(8-(Carboxymethyloxy)-2-ethyl-3-(1-naphthyl)indolizin-1-yl)acetamide] | 129 to 133 °C
